The supplement of paper PMC10883282
± gives the standard deviation of the averaged measurements.

Key:
Test in all cases: relative viability vs DMSO control (72 h) (fraction); higher = more viable cells
SK-LMS-1 = system: SK-LMS-1
In short: (§1)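 Sarcoma cell lines were grown in 384-well plates seeded toward 80–90% confluence and exposed 24 h later to serially diluted compound. After 72 h at 37 °C and 5% CO2, with 0.1% DMSO vehicle and a 5 µM positive control on the plates, ATPLite was read. Relative viability, given as percent growth averaged over up to triplicate wells, was rescaled so that 1 is full and 0 is none.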

G401 = system: G401
In short: as §1

RD-ES = system: RD-ES
In short: as §1

KHOS-NP = system: KHOS-NP
In short: as §1

SW872 = system: SW872
In short: as §1

MES-SA = system: MES-SA
In short: as §1

CCCS(=O)(=O)N[C@H]1C[C@@H](N(C)c2ncnc3[nH]ccc23)C1 [Abrocitinib]
relative viability
Conditions	G401	KHOS-NP	MES-SA	RD-ES	SK-LMS-1	SW872
0.00017 µM	1 ± 0.022	1.05 ± 0.037	0.929 ± 0.014	0.988 ± 0.043	1 ± 0.039	0.993 ± 0.046
0.00051 µM	0.981 ± 0.066	1.04 ± 0.015	0.904 ± 0.021	0.998 ± 0.033	1.03 ± 0.036	0.995 ± 0.05
0.00152 µM	0.994 ± 0.03	1.04 ± 0.015	0.9 ± 0.017	0.985 ± 0.03	1.01 ± 0.0099	0.991 ± 0.029
0.00457 µM	1.04 ± 0.025	1.05 ± 0.023	0.9254 ± 0.0076	0.993 ± 0.031	1.02 ± 0.028	1 ± 0.046
0.01372 µM	1.01 ± 0.012	1.05 ± 0.0097	0.917 ± 0.011	1.02 ± 0.029	1.04 ± 0.019	1.01 ± 0.017
0.04115 µM	0.981 ± 0.028	1.04 ± 0.014	0.932 ± 0.039	1.03 ± 0.043	1.04 ± 0.05	1.03 ± 0.011
0.1235 µM	0.984 ± 0.042	1.06 ± 0.019	0.922 ± 0.013	1.03 ± 0.032	0.992 ± 0.047	1.02 ± 0.037
0.3704 µM	1.01 ± 0.041	1.04 ± 0.042	0.942 ± 0.027	1.015 ± 0.0074	1.01 ± 0.038	1.02 ± 0.019
1.111 µM	1.01 ± 0.031	1.05 ± 0.042	0.912 ± 0.02	1.03 ± 0.033	1.01 ± 0.029	1.03 ± 0.014
3.333 µM	0.956 ± 0.015	1.04 ± 0.038	0.933 ± 0.029	1.03 ± 0.02	1.02 ± 0.02	1.01 ± 0.034
10 µM	0.915 ± 0.014	1.039 ± 0.0042	0.893 ± 0.024	1.03 ± 0.029	1.02 ± 0.024	1 ± 0.025
